# Source: patent publication US20260022142A1, “MACROCYCLIC IMMUNOMODULATORS” (Bristol-Myers Squibb Company, priority 2022, published 2026)
# Bridge positions count the residues as written; N and C are the ends. Square brackets hold non-standard residues; d marks the D form. Peptide text beside a SMILES is read from it. * marks the point of attachment. ξ: configuration not given here. Phe(4-CH2CH2COOH) = N[C@@H](Cc1ccc(CCC(=O)O)cc1)C(=O)O; Phe(3,4,5-F3) = N[C@@H](Cc1cc(F)c(F)c(F)c1)C(=O)O; Phe(4-COOH) = N[C@@H](Cc1ccc(C(=O)O)cc1)C(=O)O; Bip = N[C@@H](Cc1ccc(-c2ccccc2)cc1)C(=O)O; Phe(3-Me) = Cc1cccc(C[C@H](N)C(=O)O)c1; Val(3-OH) = CC(C)(O)[C@H](N)C(=O)O; 4Pal = N[C@@H](Cc1ccncc1)C(=O)O; Cha = N[C@@H](CC1CCCCC1)C(=O)O; Cit = NC(=O)NCCC[C@H](N)C(=O)O; Thr(3ξ) = CC(O)[C@H](N)C(=O)O; Pen = CC(C)(S)[C@H](N)C(=O)O; 12Ado = NCCCCCCCCCCCC(=O)O; Carboxymethyl = O=C(O)C*; Orn = NCCC[C@H](N)C(=O)O; Aun = NCCCCCCCCCCC(=O)O; Dab = NCC[C@H](N)C(=O)O; Dap = NC[C@H](N)C(=O)O; AEEA = NCCOCCOCC(=O)O
# Target: T1, PD-1/PD-L1 interaction (PE-labeled human PD-L1-Ig binding to Jurkat cell line over-expressing human PD-1) (Homo sapiens, UniProt Q15116)
# T1 construct: expressed in transfected cells; host or cells: Jurkat
# T1 sequence (Q15116 25-288): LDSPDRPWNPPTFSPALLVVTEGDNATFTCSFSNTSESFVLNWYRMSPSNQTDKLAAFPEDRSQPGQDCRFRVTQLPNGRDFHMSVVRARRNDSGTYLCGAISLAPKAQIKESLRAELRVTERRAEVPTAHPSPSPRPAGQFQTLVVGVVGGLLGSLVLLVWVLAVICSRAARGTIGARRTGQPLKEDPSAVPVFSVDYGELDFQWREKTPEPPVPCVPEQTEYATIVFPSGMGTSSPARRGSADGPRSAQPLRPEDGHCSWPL
# Assay: Jurkat-PD-1 Cell Binding High-Content Screening Assay (CBA)
# Format: cell-based
# Details: Jurkat cell line over-expressing human PD-1; PE-labeled PD-L1-Ig 20 nM final; read-out: Jurkat hPD1-PDL1 IC50
# Method in brief: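 Jurkat cells stably over-expressing human PD-1 were seeded in DMEM with 10% fetal calf serum and pre-incubated with compound for 2 h at 37° C. PE-labeled human PD-L1-Ig was then added at 20 nM final for 1 hour, after which cells were fixed with paraformaldehyde, Hoechst-stained and imaged by high-content microscopy.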
row,IC50,Compound
1,31.2 nM,Cc1cccc(C[C@@H]2NC(=O)[C@H](CC(=O)O)NC(=O)[C@H](Cc3ccc(OCC(=O)O)cc3)NC(=O)[C@H](Cc3ccncc3)NC(=O)CSC[C@@H](C(=O)N[C@@H](CCN)C(=O)NCCOCCOCC(=O)NCCOCCOCC(=O)NCCCCCCCCCCC(=O)O)NC(=O)[C@H](Cc3cnc[nH]3)NC(=O)[C@H](C(C)C)NC(=O)[C@H](CC3CCCCC3)NC(=O)[C@H](CCN)NC(=O)[C@@H](CC(C)C)NC(=O)[C@H](CCCN)NC(=O)[C@H](Cc3ccc(C(=O)O)cc3)NC(=O)[C@H](Cc3ccc(-c4ccccc4)cc3)NC(=O)[C@H](Cc3ccc(C(=O)O)cc3)NC2=O)c1 [Compound 3766] ({CH2CO}-[4Pal]Y(Carboxymethyl)D[Phe(3-Me)][Phe(4-COOH)][Bip][Phe(4-COOH)][Orn][dL][Dab][Cha]VHC[Dab][AEEA][AEEA][Aun]-OH; thioether N-14)
2,78.8 nM,Cc1cccc(C[C@@H]2NC(=O)[C@H](CC(=O)O)NC(=O)[C@H](Cc3ccc(OCC(=O)O)cc3)NC(=O)[C@H](CCN)NC(=O)CSC[C@@H](C(=O)N[C@@H](CCCN)C(=O)N[C@@H](CO)C(=O)NCCCCCCCCCCCC(=O)O)NC(=O)[C@H](CO)NC(=O)[C@H](C(C)(C)O)NC(=O)[C@H](CC3CCCCC3)NC(=O)[C@H](CCN)NC(=O)[C@@H](CC(C)C)NC(=O)[C@H](CCCN)NC(=O)[C@H](Cc3ccc(OCC(=O)O)cc3)NC(=O)[C@H](Cc3ccc(-c4ccccc4)cc3)NC(=O)[C@H](Cc3ccc(OCC(=O)O)cc3)NC2=O)c1 [Compound 3617] ({CH2CO}-[Dab]Y(Carboxymethyl)D[Phe(3-Me)]Y(Carboxymethyl)[Bip]Y(Carboxymethyl)[Orn][dL][Dab][Cha][Val(3-OH)]SC[Orn]S[12Ado]-OH; thioether N-14)
3,33.4 nM,Cc1cccc(C[C@@H]2NC(=O)[C@H](CC(=O)O)NC(=O)[C@H](Cc3ccc(OCC(=O)O)cc3)NC(=O)[C@H](CN)NC(=O)CSC[C@@H](C(=O)N[C@@H](CCN)C(=O)NCCCCCCCCCCC(=O)O)NC(=O)[C@H](CCCNC(=N)N)NC(=O)[C@H](Cc3ccc(O)cc3)NC(=O)[C@H](CC3CCCCC3)NC(=O)[C@H](CCN)NC(=O)[C@@H](CC(C)C)NC(=O)[C@H](CCCN)NC(=O)[C@H](Cc3ccc(O)cc3)NC(=O)[C@H](Cc3ccc(-c4ccccc4)cc3)NC(=O)[C@H](Cc3ccc(O)cc3)NC2=O)c1 [Compound 2512] ({CH2CO}-[Dap]Y(Carboxymethyl)D[Phe(3-Me)]Y[Bip]Y[Orn][dL][Dab][Cha]YRC[Dab][Aun]-OH; thioether N-14)
4,50 nM,"Cc1cccc(C[C@@H]2NC(=O)[C@H](CC(=O)O)NC(=O)[C@H](Cc3ccc(OCC(=O)O)cc3)NC(=O)[C@H](Cc3cc(F)c(F)c(F)c3)NC(=O)CSC[C@@H](C(=O)N[C@@H](CCN)C(=O)NCCCCCCCCCCC(=O)O)NC(=O)[C@H](CO)NC(=O)[C@H](C(C)(C)O)NC(=O)[C@H](CC3CCCCC3)NC(=O)[C@H](CCN)NC(=O)[C@@H](CC(C)C)NC(=O)[C@H](CCCN)NC(=O)[C@H](Cc3ccc(OCC(=O)O)cc3)NC(=O)[C@H](Cc3ccc(-c4ccccc4)cc3)NC(=O)[C@H](Cc3ccc(OCC(=O)O)cc3)NC2=O)c1 [Compound 2199] ({CH2CO}-[Phe(3,4,5-F3)]Y(Carboxymethyl)D[Phe(3-Me)]Y(Carboxymethyl)[Bip]Y(Carboxymethyl)[Orn][dL][Dab][Cha][Val(3-OH)]SC[Dab][Aun]-OH; thioether N-14)"
5,31.5 nM,CC(C)C[C@H]1NC(=O)[C@H](CCCN)NC(=O)[C@H](C(C)C)NC(=O)[C@H](Cc2ccc(-c3ccccc3)cc2)NC(=O)[C@H](C(C)C)NC(=O)[C@H](Cc2c[nH]c3ccccc23)NC(=O)[C@H](CC(=O)O)NC(=O)[C@H](Cc2ccc(OCC(=O)O)cc2)NC(=O)[C@H](CN)NC(=O)CSC[C@@H](C(=O)N[C@@H](C)C(=O)N[C@@H](CCCN)C(=O)NCCCCCCCCCCC(=O)O)NC(=O)[C@H]([C@@H](C)O)NC(=O)[C@H](C(C)C)NC(=O)[C@H](CC2CCCCC2)NC(=O)[C@H](Cc2cnc[nH]2)NC1=O [Compound 1091] ({CH2CO}-[Dap]Y(Carboxymethyl)DWV[Bip]V[Orn][dL]H[Cha]VTCA[Orn][Aun]-OH; thioether N-14)
6,21.2 nM,Cc1cccc(C[C@@H]2NC(=O)[C@H](CC(=O)O)NC(=O)[C@H](Cc3ccc(OCC(=O)O)cc3)NC(=O)[C@H](CN)NC(=O)CSC[C@@H](C(=O)N[C@@H](CCN)C(=O)NCCCCCCCCCCC(=O)O)NC(=O)[C@H]([C@@H](C)O)NC(=O)[C@H](C(C)C)NC(=O)[C@H](CC3CCCCC3)NC(=O)[C@H](CCN)NC(=O)[C@@H](CC(C)C)NC(=O)[C@H](CCCN)NC(=O)[C@H](Cc3ccc(OCC(=O)O)cc3)NC(=O)[C@H](Cc3ccc(-c4ccccc4)cc3)NC(=O)[C@H](Cc3ccc(OCC(=O)O)cc3)NC2=O)c1 [Compound 2732] ({CH2CO}-[Dap]Y(Carboxymethyl)D[Phe(3-Me)]Y(Carboxymethyl)[Bip]Y(Carboxymethyl)[Orn][dL][Dab][Cha]VTC[Dab][Aun]-OH; thioether N-14)
7,23.6 nM,Cc1cccc(C[C@@H]2NC(=O)[C@H](CC(=O)O)NC(=O)[C@H](Cc3ccc(CCC(=O)O)cc3)NC(=O)[C@H](CCCNC(=N)N)NC(=O)CSC[C@@H](C(=O)N[C@@H](CCCN)C(=O)N[C@@H](CO)C(=O)NCCCCCCCCCCC(=O)O)NC(=O)[C@H](CCC(=O)O)NC(=O)[C@H](C(C)C)NC(=O)[C@H](CC3CCCCC3)NC(=O)[C@H](CCN)NC(=O)[C@@H](CC(C)C)NC(=O)[C@H](CCN)NC(=O)[C@H](CCCNC(N)=O)NC(=O)[C@H](Cc3ccc(-c4ccccc4)cc3)NC(=O)[C@H](C(C)C)NC2=O)c1 [Compound 2814] ({CH2CO}-R[Phe(4-CH2CH2COOH)]D[Phe(3-Me)]V[Bip][Cit][Dab][dL][Dab][Cha]VEC[Orn]S[Aun]-OH; thioether N-14)
8,21.6 nM,CC(C)C[C@H]1NC(=O)[C@H](CCCN)NC(=O)[C@H](C(C)C)NC(=O)[C@H](Cc2ccc(-c3ccccc3)cc2)NC(=O)[C@H](C(C)C)NC(=O)[C@H](Cc2c[nH]c3ccccc23)NC(=O)[C@H](CC(=O)O)NC(=O)[C@H](Cc2ccc(OCC(=O)O)cc2)NC(=O)[C@H](CN)NC(=O)CSC[C@@H](C(=O)N[C@@H](CCN)C(=O)NCCCCCCCCCCC(=O)O)NC(=O)[C@H](CCC(N)=O)NC(=O)[C@H](C(C)C)NC(=O)[C@H](CC2CCCCC2)NC(=O)[C@H](Cc2c[nH]cn2)NC1=O [Compound 2793] ({CH2CO}-[Dap]Y(Carboxymethyl)DWV[Bip]V[Orn][dL]H[Cha]VQC[Dab][Aun]-OH; thioether N-14)
9,9.8 nM,Cc1cccc(C[C@@H]2NC(=O)[C@H](CC(=O)O)NC(=O)[C@H](Cc3ccc(OCC(=O)O)cc3)NC(=O)[C@H](C(C)O)NC(=O)CSC[C@@H](C(=O)N[C@H](CC(N)=O)C(=O)NCCCCCCCCCCC(=O)O)NC(=O)[C@H](C(C)O)NC(=O)[C@H](C(C)C)NC(=O)[C@H](CC3CCCCC3)NC(=O)[C@H](CCN)NC(=O)[C@@H](CC(C)C)NC(=O)[C@H](CCCN)NC(=O)[C@H](Cc3ccc(OCC(=O)O)cc3)NC(=O)[C@H](Cc3ccc(-c4ccccc4)cc3)NC(=O)[C@H](C(C)C)NC2=O)c1 (stereo partly drawn) [Compound 3493] ({CH2CO}-[Thr(3ξ)]Y(Carboxymethyl)D[Phe(3-Me)]V[Bip]Y(Carboxymethyl)[Orn][dL][Dab][Cha]V[Thr(3ξ)]C[dN][Aun]-OH; thioether N-14)
10,113 nM,Cc1cccc(C[C@@H]2NC(=O)[C@H](CC(=O)O)NC(=O)[C@H](Cc3ccc(OCC(=O)O)cc3)NC(=O)[C@H](CN)NC(=O)CSC(C)(C)[C@@H](C(=O)N[C@@H](CCN)C(=O)NCCCCCCCCCCC(=O)O)NC(=O)[C@H]([C@@H](C)O)NC(=O)[C@H](C(C)C)NC(=O)[C@H](CC3CCCCC3)NC(=O)[C@H](CCN)NC(=O)[C@@H](CC(C)C)NC(=O)[C@H](CCCN)NC(=O)[C@H](Cc3ccc(O)cc3)NC(=O)[C@H](Cc3ccc(-c4ccccc4)cc3)NC(=O)[C@H](C(C)C)NC2=O)c1 [Compound 2753] ({CH2CO}-[Dap]Y(Carboxymethyl)D[Phe(3-Me)]V[Bip]Y[Orn][dL][Dab][Cha]VT[Pen][Dab][Aun]-OH; thioether N-14)
11,25.7 nM,Cc1cccc(C[C@@H]2NC(=O)[C@H](CC(=O)O)NC(=O)[C@H](Cc3ccc(OCC(=O)O)cc3)NC(=O)[C@H](CCCNC(=N)N)NC(=O)CSC[C@@H](C(=O)N[C@@H](CCCCN)C(=O)NCCCCCCCCCCC(=O)O)NC(=O)[C@H](C(C)O)NC(=O)[C@H](C(C)C)NC(=O)[C@H](CC3CCCCC3)NC(=O)[C@H](CCN)NC(=O)[C@@H](CC(C)C)NC(=O)[C@H](CCCN)NC(=O)[C@H](C(C)C)NC(=O)[C@H](Cc3ccc(-c4ccccc4)cc3)NC(=O)[C@H](C(C)C)NC2=O)c1 (stereo partly drawn) [Compound 3475] ({CH2CO}-RY(Carboxymethyl)D[Phe(3-Me)]V[Bip]V[Orn][dL][Dab][Cha]V[Thr(3ξ)]CK[Aun]-OH; thioether N-14)
12,5.9 nM,Cc1cccc(C[C@@H]2NC(=O)[C@H](CC(=O)O)NC(=O)[C@H](Cc3ccc(OCC(=O)O)cc3)NC(=O)[C@H](C(C)O)NC(=O)CSC[C@@H](C(=O)N[C@H](CC(N)=O)C(=O)NCCCCCCCCCCC(=O)O)NC(=O)[C@H](C(C)O)NC(=O)[C@H](C(C)C)NC(=O)[C@H](CC3CCCCC3)NC(=O)[C@H](CCN)NC(=O)[C@@H](CC(C)C)NC(=O)[C@H](CCCN)NC(=O)[C@H](Cc3ccc(OCC(=O)O)cc3)NC(=O)[C@H](Cc3ccc(-c4ccccc4)cc3)NC(=O)[C@H](Cc3ccc(OCC(=O)O)cc3)NC2=O)c1 (stereo partly drawn) [Compound 3490] ({CH2CO}-[Thr(3ξ)]Y(Carboxymethyl)D[Phe(3-Me)]Y(Carboxymethyl)[Bip]Y(Carboxymethyl)[Orn][dL][Dab][Cha]V[Thr(3ξ)]C[dN][Aun]-OH; thioether N-14)
13,21 nM,Cc1cccc(C[C@@H]2NC(=O)[C@H](CC(=O)O)NC(=O)[C@H](Cc3ccc(OCC(=O)O)cc3)NC(=O)[C@H](CCCNC(=N)N)NC(=O)CSC[C@@H](C(=O)N[C@@H](CCCN)C(=O)NCCCCCCCCCCC(=O)O)NC(=O)[C@H](CCC(=O)O)NC(=O)[C@H](C(C)C)NC(=O)[C@H](CC3CCCCC3)NC(=O)[C@H](CCN)NC(=O)[C@@H](CC(C)C)NC(=O)[C@H](CCN)NC(=O)[C@H](Cc3ccc(O)cc3)NC(=O)[C@H](Cc3ccc(-c4ccccc4)cc3)NC(=O)[C@H](C(C)C)NC2=O)c1 [Compound 2819] ({CH2CO}-RY(Carboxymethyl)D[Phe(3-Me)]V[Bip]Y[Dab][dL][Dab][Cha]VEC[Orn][Aun]-OH; thioether N-14)
